According to patent US7524964B2, “Tetrahydrothiopyrano pyrazole cannabinoid modulators” (Janssen Pharmaceutica NV, priority 2005, dated 2009):
pIC50: −log10 of the molar value. Read-outs that look alike come from different tables or passages of the source.

Columns and labels:
human CB-2 receptor = molecular target: T1, human CB-2 receptor (Homo sapiens, UniProt P34972); assay: Binding assay, cannabinoid CB2 receptor ([3H]-CP-55,940 displacement); settings: read-out: CB2 binding percent inhibition; for inhibition at 1 µM: test concentration 1 μM (superscript b)
T1 construct: expressed in transfected cells; host or cells: SK-N-MC cells, pcDNA3 CB-2 (human), semi-purified membranes
Procedure: (§1) Binding Assay for CB1 or CB2 Agonists or Inverse Agonists
(§2) The human CB-1 and CB-2 receptors were stably expressed in SK-N-MC cells transfected with pcDNA3 CB-1 (human) or pcDNA3 CB-2 (human). The cells were grown in T-180 cell culture flasks under standard cell culture conditions at 37° C. in a 5% CO2 atmosphere. The cells were harvested by trypsinization and homogenized in a homogenization buffer (10 mM Tris, 0.2 mM MgCl2, 5 mM KCl, with protease inhibitors aprotinin, leupeptin, pepstatin A and bacitracin) and centrifuged (2000 g). The supernatant was then centrifuged in 2M sucrose (31,300 g) to produce a semi-purified membrane pellet. The pellet was resuspended in homogenization and store at −80° C.
(§3) On the day of the assay, the pellet was thawed on ice and diluted in assay buffer (50 mM Tris-HCl, 5 mM MgCl2, 2.5 mM EDTA, 0.5 mg/mL fatty acid free bovine serum albumin, pH 7.5). The diluted membrane was added with buffer, test compound or standard and the radioligand [H]^3+-CP-55,940_(0.2 nM) to the wells of a 96-well polypropylene plate. Non-specific binding was measured in wells containing 10 uM WIN 55,212. The plate was covered and incubated for 90 minutes at 30° C. The contents were then aspirated onto a Packard Unifilter G/C filter bottom plate prewet with 0.5% polyethyleneimine. The wells of the polypropylene plate were rinsed and aspirated seven times with a 0.9% saline-0.5% Tween 20 solution. The Unifilter plate was dried, a scintillation cocktail was added to each well and the counts representing binding were quantitated in a TopCount scintillation counter.
(§4) The IC50 binding values for compounds tested were calculated by linear regression and were obtained from studies in which varying compound concentrations were used. Where an IC50 was not obtained, test results are provided as percent inhibition at a test concentration of ^a0.2 μM, ^b1 μM or ^c10 μM.

human CB1 receptor = human CB1 receptor (Homo sapiens, UniProt P21554); assay: Binding assay, cannabinoid CB1 receptor ([3H]-CP-55,940 displacement); design: expressed in transfected cells; host or cells: SK-N-MC cells, pcDNA3 CB-1 (human), semi-purified membranes; settings: for inhibition at 1 µM: test concentration 1 μM (superscript b); for inhibition at 1 µM / inhibition at 0.2 µM: read-out: CB1 binding percent inhibition; for inhibition at 0.2 µM: test concentration 0.2 μM (superscript a)
Procedure: as §1, §2, §3, §4

[1] = test concentration 0.2 μM (superscript a)

Sequence of human CB1 receptor (P21554 whole entry): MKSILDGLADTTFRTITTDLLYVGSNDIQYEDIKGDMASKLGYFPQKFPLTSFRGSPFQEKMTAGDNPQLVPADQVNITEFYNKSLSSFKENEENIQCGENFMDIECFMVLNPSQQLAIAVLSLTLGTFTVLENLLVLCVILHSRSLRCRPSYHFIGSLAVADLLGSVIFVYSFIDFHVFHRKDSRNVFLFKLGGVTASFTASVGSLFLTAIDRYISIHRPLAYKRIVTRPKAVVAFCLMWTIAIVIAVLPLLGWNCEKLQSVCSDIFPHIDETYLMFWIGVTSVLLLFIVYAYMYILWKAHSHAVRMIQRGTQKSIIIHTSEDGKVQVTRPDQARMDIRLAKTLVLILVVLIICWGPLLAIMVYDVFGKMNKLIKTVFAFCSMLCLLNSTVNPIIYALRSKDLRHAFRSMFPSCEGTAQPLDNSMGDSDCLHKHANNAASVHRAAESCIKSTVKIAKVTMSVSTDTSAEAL
T1 sequence (P34972 whole entry): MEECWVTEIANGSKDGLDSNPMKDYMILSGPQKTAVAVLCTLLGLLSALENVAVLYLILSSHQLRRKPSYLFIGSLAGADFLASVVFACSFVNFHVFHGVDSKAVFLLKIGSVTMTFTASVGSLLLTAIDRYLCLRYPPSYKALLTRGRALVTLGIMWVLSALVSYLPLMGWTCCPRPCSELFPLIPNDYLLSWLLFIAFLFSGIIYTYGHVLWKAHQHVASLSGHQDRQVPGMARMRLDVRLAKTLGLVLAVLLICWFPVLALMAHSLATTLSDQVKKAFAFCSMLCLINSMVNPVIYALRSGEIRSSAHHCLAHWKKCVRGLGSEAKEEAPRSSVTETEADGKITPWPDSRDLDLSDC

| SMILES | inhibition at 0.2 µM (human CB-2 receptor; [1]) [%] | inhibition at 0.2 µM (human CB1 receptor) [%] | pIC50 (human CB1 receptor) | further results |
| --- | --- | --- | --- | --- |
| C[C@H](NS(=O)(=O)/C=C/c1nn(Cc2ccccc2)c2c1CSCC2)C1CCCCC1 [Cpd 12, (E)-2-(1-benzyl-1,4,6,7-tetrahydro-thiopyrano[4,3-c]pyrazol-3-yl)-ethenesulfonic acid [(1S)-1-cyclohexyl-ethyl]-amide] |  |  |  | inhibition at 1 µM (human CB-2 receptor): 42%; inhibition at 1 µM (human CB1 receptor): 15% |
| NC(=O)c1nn(-c2ccc(Cl)cc2Cl)c2c1CS(=O)(=O)C/C2=C\c1ccc(F)cc1 [Cpd 71, (7Z)-1-(2,4-dichloro-phenyl)-7-(4-fluoro-benzylidene)-5,5-dioxo-4,5,6,7-tetrahydro-1H-5λ^6-thiopyrano[4,3-c]pyrazole-3-carboxylic acid amide] | 13 | 18 |  |  |
| C[C@@H](NC(=O)c1nn(-c2ccc(Cl)cc2Cl)c2c1CS(=O)(=O)C/C2=C\c1ccc(Cl)o1)c1ccccc1 [Cpd 117, (7Z)-7-(5-chloro-furan-2-ylmethylene)-1-(2,4-dichloro-phenyl)-5,5-dioxo-4,5,6,7-tetrahydro-1H-5λ^6-thiopyrano[4,3-c]pyrazole-3-carboxylic acid [(1R)-1-phenyl-ethyl]-amide] |  |  | 8.05 | inhibition at 0.2 µM (human CB-2 receptor): 18% |
| O=C(NN1CCCC1)c1nn(-c2ccc(Cl)cc2Cl)c2c1CSC/C2=C\c1ccc(F)cc1 [Cpd 56, (7Z)-1-(2,4-dichloro-phenyl)-7-(4-fluoro-benzylidene)-1,4,6,7-tetrahydro-thiopyrano[4,3-c]pyrazole-3-carboxylic acid pyrrolidin-1-ylamide] | 15 |  | 7.46 |  |
| C[C@@H](NC(=O)c1c2c(nn1-c1ccc(Cl)cc1Cl)/C(=C/c1ccc(F)cc1)CS(=O)(=O)C2)C1CCCCC1 [Cpd 84, (7Z)-2-(2,4-dichloro-phenyl)-7-(4-fluoro-benzylidene)-5,5-dioxo-4,5,6,7-tetrahydro-2H-5λ^6-thiopyrano[4,3-c]pyrazole-3-carboxylic acid [(1R)-1-cyclohexyl-ethyl]-amide] | 17 |  | 8.70 |  |
| O=C(N[C@@H]1c2ccccc2C[C@@H]1O)c1nn(-c2ccc(F)cc2F)c2c1CS(=O)(=O)CC2Cc1cccc(F)c1 (stereo partly drawn) [Cpd 51, 1-(2,4-difluoro-phenyl)-7-(3-fluoro-benzyl)-5,5-dioxo-4,5,6,7-tetrahydro-1H-5λ^6-thiopyrano[4,3-c]pyrazole-3-carboxylic acid [(1R,2S)-2-hydroxy-indan-1-yl]-amide] | 9 | 35 |  |  |
| O=C(c1nn(-c2ccc(Cl)cc2Cl)c2c1CSC/C2=C\c1ccc(F)cc1)N1CCCC1 [Cpd 57, (7Z)-[1-(2,4-dichloro-phenyl)-7-(4-fluoro-benzylidene)-1,4,6,7-tetrahydro-thiopyrano[4,3-c]pyrazol-3-yl]-pyrrolidin-1-yl-methanone] | 21 | 56 |  |  |
| O=C(NN1CC2CCCC2C1)c1nn(-c2ccc(Cl)cc2Cl)c2c1CS(=O)(=O)C/C2=C\c1ccc(F)cc1 (stereo not drawn) [Cpd 104, (7Z)-1-(2,4-dichloro-phenyl)-7-(4-fluoro-benzylidene)-5,5-dioxo-4,5,6,7-tetrahydro-1H-5λ^6-thiopyrano[4,3-c]pyrazole-3-carboxylic acid (hexahydro-cyclopenta[c]pyrrol-2-yl)-amide] | 10 | 76 |  |  |
| O=S(=O)(/C=C/c1nn(-c2ccc(F)cc2F)c2c1CSCC2Cc1cccc(F)c1)NN1CCCCC1 (stereo not drawn) [Cpd 40, (E)-2-[1-(2,4-difluoro-phenyl)-7-(3-fluoro-benzyl)-1,4,6,7-tetrahydro-thiopyrano[4,3-c]pyrazol-3-yl]-ethenesulfonic acid piperidin-1-ylamide] | 10 | 12 |  |  |
| O=C(NN1CCCCC1)c1c2c(nn1-c1ccc(Cl)cc1Cl)/C(=C/c1ccc(F)cc1)CSC2 [Cpd 88, (7Z)-2-(2,4-dichloro-phenyl)-7-(4-fluoro-benzylidene)-2,4,6,7-tetrahydro-thiopyrano[4,3-c]pyrazole-3-carboxylic acid piperidin-1-ylamide] | 9 | 46 |  |  |
| C[C@@H](NS(=O)(=O)/C=C/c1nn(Cc2ccccc2)c2c1CSCC2)c1ccccc1 [Cpd 7, (E)-2-(1-benzyl-1,4,6,7-tetrahydro-thiopyrano[4,3-c]pyrazol-3-yl)-ethenesulfonic acid [(1R)-1-phenyl-ethyl]-amide] |  |  |  | inhibition at 1 µM (human CB-2 receptor): 44%; inhibition at 1 µM (human CB1 receptor): 15% |
| O=C(NN1CCN(CCO)CC1)c1nn(-c2ccc(Cl)cc2Cl)c2c1CS(=O)(=O)C/C2=C\c1ccc(F)cc1 [Cpd 110, (7Z)-1-(2,4-dichloro-phenyl)-7-(4-fluoro-benzylidene)-5,5-dioxo-4,5,6,7-tetrahydro-1H-5λ^6-thiopyrano[4,3-c]pyrazole-3-carboxylic acid [4-(2-hydroxy-ethyl)-piperazin-1-yl]-amide] | 7 | 13 |  |  |
| C[C@@H](NC(=O)c1nn(-c2ccc(Cl)cc2)c2c1CS(=O)(=O)C/C2=C\c1ccc(F)cc1)c1ccccc1 [Cpd 95, (7Z)-1-(4-chloro-phenyl)-7-(4-fluoro-benzylidene)-5,5-dioxo-4,5,6,7-tetrahydro-1H-5λ^6-thiopyrano[4,3-c]pyrazole-3-carboxylic acid [(1R)-1-phenyl-ethyl]-amide] |  |  | 8.05 | inhibition at 0.2 µM (human CB-2 receptor): 15% |
| CN1CCN(NC(=O)c2nn(-c3ccc(Cl)cc3Cl)c3c2CSC/C3=C\c2ccc(F)cc2)CC1 [Cpd 113, (7Z)-1-(2,4-dichloro-phenyl)-7-(4-fluoro-benzylidene)-1,4,6,7-tetrahydro-thiopyrano[4,3-c]pyrazole-3-carboxylic acid (4-methyl-piperazin-1-yl)-amide] | 0 | 17 |  |  |
| C[C@@H](NS(=O)(=O)/C=C/c1c2c(nn1Cc1ccccc1)CCSC2)c1ccccc1 [Cpd 2, (E)-2-(2-benzyl-2,4,6,7-tetrahydro-thiopyrano[4,3-c]pyrazol-3-yl)-ethenesulfonic acid [(1R)-1-phenyl-ethyl]-amide] |  |  |  | inhibition at 1 µM (human CB-2 receptor): 0%; inhibition at 1 µM (human CB1 receptor): 13% |
| COC[C@@H]1CCCN1NC(=O)c1nn(-c2ccc(Cl)cc2Cl)c2c1CS(=O)(=O)C/C2=C\c1ccc(F)cc1 [Cpd 125, (7Z)-1-(2,4-dichloro-phenyl)-7-(4-fluoro-benzylidene)-5,5-dioxo-4,5,6,7-tetrahydro-1H-5λ^6-thiopyrano[4,3-c]pyrazole-3-carboxylic acid [(2S)-2-(methoxymethyl)-pyrrolidin-1-yl]-amide] | 8 |  | 7.24 |  |
| COC[C@H]1CCCN1NC(=O)c1nn(-c2ccc(Cl)cc2Cl)c2c1CSC/C2=C\c1ccc(F)cc1 [Cpd 122, (7Z)-1-(2,4-dichloro-phenyl)-7-(4-fluoro-benzylidene)-1,4,6,7-tetrahydro-thiopyrano[4,3-c]pyrazole-3-carboxylic acid [(2R)-2-(methoxymethyl)-pyrrolidin-1-yl]-amide] | 18 |  | 8.22 |  |
| C[C@@H](NS(=O)(=O)/C=C/c1n[nH]c2c1CSCC2Cc1cccc(F)c1)C1CCCCC1 (stereo partly drawn) [Cpd 48, (E)-2-[7-(3-fluoro-benzyl)-1,4,6,7-tetrahydro-thiopyrano[4,3-c]pyrazol-3-yl]-ethenesulfonic acid [(1R)-1-cyclohexyl-ethyl]-amide] | 11 | 15 |  |  |
